{"source": "ChEMBL document CHEMBL3046832", "about": "“Synthesis of some sulfonamides, disubstituted sulfonylureas or thioureas and some structurally related variants. A class of promising antitumor agents” (2007)", "format_in_all_cases": "functional", "key": {"HCT-15": {"system": "HCT-15", "experiment": "Cytotoxicity against Homo sapiens (human) HCT15 cells after 48 hr by SRB assay", "settings": "HCT-15, 48 h"}, "UO-31": {"system": "UO-31", "experiment": "Cytotoxicity against Homo sapiens (human) UO31 cells after 48 hr by SRB assay", "settings": "UO-31, 48 h"}, "NCI-H23": {"system": "NCI-H23", "experiment": "Cytotoxicity against Homo sapiens (human) NCI-H23 cells after 48 hr by SRB assay", "settings": "NCI-H23, 48 h"}, "NCI-H460 [1]": {"system": "NCI-H460", "experiment": "Cytotoxicity against Homo sapiens (human) NCI-H460 cells assessed as cellular growth after 48 hr by Alamar blue assay", "design": "concentration or dose not given beside the values"}, "OVCAR-4": {"system": "OVCAR-4", "experiment": "Cytotoxicity against Homo sapiens (human) OVCAR4 cells after 48 hr by SRB assay", "settings": "OVCAR-4, 48 h"}, "SK-OV-3": {"system": "SK-OV-3", "experiment": "Cytotoxicity against Homo sapiens (human) SKOV3 cells after 48 hr by SRB assay", "settings": "SK-OV-3, 48 h"}, "SW-620": {"system": "SW-620", "experiment": "Cytotoxicity against Homo sapiens (human) SW620 cells after 48 hr by SRB assay", "settings": "SW-620, 48 h"}, "OVCAR-5": {"system": "OVCAR-5", "experiment": "Cytotoxicity against Homo sapiens (human) OVCAR5 cells after 48 hr by SRB assay", "settings": "OVCAR-5, 48 h"}, "MCF7 [2]": {"system": "MCF7", "experiment": "Cytotoxicity against Homo sapiens (human) MCF7 cells assessed as cellular growth after 48 hr by Alamar blue assay", "design": "concentration or dose not given beside the values"}, "RPMI-8226": {"system": "RPMI-8226", "experiment": "Cytotoxicity against Homo sapiens (human) RPMI8226 cells after 48 hr by SRB assay", "settings": "RPMI-8226, 48 h"}, "[3]": {"experiment": "Cytotoxicity against Homo sapiens (human) leukemia cells after 48 hr by SRB assay", "settings": "Leukemia cell"}, "A549": {"system": "A549", "experiment": "Cytotoxicity against Homo sapiens (human) A549 cells after 48 hr by SRB assay", "settings": "A549, 48 h"}, "IGROV-1": {"system": "IGROV-1", "experiment": "Cytotoxicity against Homo sapiens (human) IGROV1 cells after 48 hr by SRB assay", "settings": "IGROV-1, 48 h"}, "NCI-H522": {"system": "NCI-H522", "experiment": "Cytotoxicity against Homo sapiens (human) NCI-H522 cells after 48 hr by SRB assay", "settings": "NCI-H522, 48 h"}, "[4]": {"experiment": "Cytotoxicity against Homo sapiens (human) melanoma cells after 48 hr by SRB assay", "settings": "Melanoma cell"}, "SF-268": {"system": "SF-268", "experiment": "Cytotoxicity against Homo sapiens (human) SF268 cells assessed as cellular growth after 48 hr by Alamar blue assay", "design": "concentration or dose not given beside the values"}, "786-0": {"system": "786-0", "experiment": "Cytotoxicity against Homo sapiens (human) 786-0 cells after 48 hr by SRB assay", "settings": "786-0, 48 h"}, "[5]": {"experiment": "Cytotoxicity against Homo sapiens (human) NCI-H322 cells after 48 hr by SRB assay", "settings": "NCI-H322, 48 h"}, "SF-539": {"system": "SF-539", "experiment": "Cytotoxicity against Homo sapiens (human) SF539 cells after 48 hr by SRB assay", "settings": "SF-539, 48 h"}, "NCI-H460 [6]": {"system": "NCI-H460", "experiment": "Cytotoxicity against Homo sapiens (human) NCI-H460 cells after 48 hr by SRB assay", "settings": "NCI-H460, 48 h"}, "[7]": {"experiment": "Cytotoxicity against Homo sapiens (human) breast cancer cells after 48 hr by SRB assay", "settings": "Cancer cell lines"}, "UACC-257": {"system": "UACC-257", "experiment": "Cytotoxicity against Homo sapiens (human) UACC257 cells after 48 hr by SRB assay", "settings": "UACC-257, 48 h"}, "CAKI-1": {"system": "CAKI-1", "experiment": "Cytotoxicity against Homo sapiens (human) Caki1 cells after 48 hr by SRB assay", "settings": "CAKI-1, 48 h"}, "KM12": {"system": "KM12", "experiment": "Cytotoxicity against Homo sapiens (human) KM12 cells after 48 hr by SRB assay", "settings": "KM12, 48 h"}, "[8]": {"experiment": "Cytotoxicity against Homo sapiens (human) ovarian cancer cells after 48 hr by SRB assay", "settings": "Cancer cell lines"}, "MCF7 [9]": {"system": "MCF7", "experiment": "Cytotoxicity against Homo sapiens (human) MCF7 cells after 48 hr by SRB assay", "settings": "MCF7, 48 h"}, "RXF 393": {"system": "RXF 393", "experiment": "Cytotoxicity against Homo sapiens (human) RXF393 cells after 48 hr by SRB assay", "settings": "RXF 393, 48 h"}, "BT-549": {"system": "BT-549", "experiment": "Cytotoxicity against Homo sapiens (human) BT549 cells after 48 hr by SRB assay", "settings": "BT-549, 48 h"}, "T47D": {"system": "T47D", "experiment": "Cytotoxicity against Homo sapiens (human) T47D cells after 48 hr by SRB assay"}, "OVCAR-3": {"system": "OVCAR-3", "experiment": "Cytotoxicity against Homo sapiens (human) OVCAR3 cells after 48 hr by SRB assay", "settings": "OVCAR-3, 48 h"}, "[10]": {"experiment": "Cytotoxicity against Homo sapiens (human) renal cancer cells after 48 hr by SRB assay", "settings": "Cancer cell lines"}, "M14": {"system": "M14", "experiment": "Cytotoxicity against Homo sapiens (human) M14 cells after 48 hr by SRB assay", "settings": "M14, 48 h"}, "U-251": {"system": "U-251", "experiment": "Cytotoxicity against Homo sapiens (human) U251 cells after 48 hr by SRB assay", "settings": "U-251, 48 h"}, "MDA-MB-231": {"system": "MDA-MB-231", "experiment": "Cytotoxicity against Homo sapiens (human) MDA-MB-231 cells after 48 hr by SRB assay", "settings": "MDA-MB-231, 48 h"}, "Hs-578T": {"system": "Hs-578T", "experiment": "Cytotoxicity against Homo sapiens (human) Hs578T cells after 48 hr by SRB assay"}, "HCC 2998": {"system": "HCC 2998", "experiment": "Cytotoxicity against Homo sapiens (human) HCC2998 cells after 48 hr by SRB assay", "settings": "HCC 2998, 48 h"}, "SK-MEL-2": {"system": "SK-MEL-2", "experiment": "Cytotoxicity against Homo sapiens (human) SK-MEL-2 cells after 48 hr by SRB assay", "settings": "SK-MEL-2, 48 h"}, "[11]": {"experiment": "Cytotoxicity against Homo sapiens (human) NCI-ADR-RES cells after 48 hr by SRB assay"}, "HOP-62": {"system": "HOP-62", "experiment": "Cytotoxicity against Homo sapiens (human) HOP62 cells after 48 hr by SRB assay", "settings": "HOP-62, 48 h"}, "HT-29": {"system": "HT-29", "experiment": "Cytotoxicity against Homo sapiens (human) HT-29 cells after 48 hr by SRB assay", "settings": "HT-29, 48 h"}, "[12]": {"experiment": "Cytotoxicity against Homo sapiens (human) non-small cell lung cancer cells after 48 hr by SRB assay", "settings": "Cancer cell lines"}, "SF-295": {"system": "SF-295", "experiment": "Cytotoxicity against Homo sapiens (human) SF295 cells after 48 hr by SRB assay", "settings": "SF-295, 48 h"}, "UACC-62": {"system": "UACC-62", "experiment": "Cytotoxicity against Homo sapiens (human) UACC62 cells after 48 hr by SRB assay", "settings": "UACC-62, 48 h"}, "SN12C": {"system": "SN12C", "experiment": "Cytotoxicity against Homo sapiens (human) SN12C cells after 48 hr by SRB assay"}, "EKVX": {"system": "EKVX", "experiment": "Cytotoxicity against Homo sapiens (human) EKVX cells after 48 hr by SRB assay"}, "SNB-75": {"system": "SNB-75", "experiment": "Cytotoxicity against Homo sapiens (human) SNB75 cells after 48 hr by SRB assay", "settings": "SNB-75, 48 h"}, "[13]": {"experiment": "Cytotoxicity against Homo sapiens (human) prostate cancer cells after 48 hr by SRB assay", "settings": "Cancer cell lines"}}, "data": [{"smiles": "O=C(Nc1ccccc1)NS(=O)(=O)c1ccc(-n2nc3c(c2-c2cccs2)Cc2ccccc2-3)cc1", "values": [{"measurement": "GI50", "setting": "HCT-15", "result": 16.9, "unit": "µM"}, {"measurement": "GI50", "setting": "UO-31", "result": 32.2, "unit": "µM"}, {"measurement": "GI50", "setting": "NCI-H23", "result": 12.2, "unit": "µM"}, {"measurement": "Activity", "setting": "NCI-H460 [1]", "result": "<=32%"}, {"measurement": "GI50", "setting": "OVCAR-4", "result": 34.9, "unit": "µM"}, {"measurement": "GI50", "setting": "SK-OV-3", "result": 60.8, "unit": "µM"}, {"measurement": "GI50", "setting": "SW-620", "result": 22.9, "unit": "µM"}, {"measurement": "GI50", "setting": "OVCAR-5", "result": 20.1, "unit": "µM"}, {"measurement": "Activity", "setting": "MCF7 [2]", "result": "<=32%"}, {"measurement": "GI50", "setting": "RPMI-8226", "result": 5.49, "unit": "µM"}, {"measurement": "GI50", "setting": "[3]", "result": 12.1, "unit": "µM"}, {"measurement": "TGI", "setting": "[3]", "result": 85.6, "unit": "µM"}, {"measurement": "GI50", "setting": "A549", "result": 20.8, "unit": "µM"}, {"measurement": "GI50", "setting": "IGROV-1", "result": 21.4, "unit": "µM"}, {"measurement": "GI50", "setting": "NCI-H522", "result": 31.5, "unit": "µM"}, {"measurement": "GI50", "setting": "[4]", "result": 29.5, "unit": "µM"}, {"measurement": "TGI", "setting": "[4]", "result": 43, "unit": "µM"}, {"measurement": "Activity", "setting": "SF-268", "result": "<=32%"}, {"measurement": "GI50", "setting": "786-0", "result": 17.6, "unit": "µM"}, {"measurement": "GI50", "setting": "[5]", "result": 4.5, "unit": "µM"}, {"measurement": "GI50", "setting": "SF-539", "result": 25, "unit": "µM"}, {"measurement": "GI50", "setting": "NCI-H460 [6]", "result": 18.9, "unit": "µM"}, {"measurement": "GI50", "setting": "[7]", "result": 20.8, "unit": "µM"}, {"measurement": "TGI", "setting": "[7]", "result": 56.5, "unit": "µM"}, {"measurement": "GI50", "setting": "UACC-257", "result": 17.7, "unit": "µM"}, {"measurement": "GI50", "setting": "CAKI-1", "result": 11.1, "unit": "µM"}, {"measurement": "GI50", "setting": "KM12", "result": 8.08, "unit": "µM"}, {"measurement": "GI50", "setting": "[8]", "result": 31.2, "unit": "µM"}, {"measurement": "TGI", "setting": "[8]", "result": 98.3, "unit": "µM"}, {"measurement": "GI50", "setting": "MCF7 [9]", "result": 13.4, "unit": "µM"}, {"measurement": "GI50", "setting": "RXF 393", "result": 85.3, "unit": "µM"}, {"measurement": "GI50", "setting": "BT-549", "result": 24.1, "unit": "µM"}, {"measurement": "GI50", "setting": "T47D", "result": 37.9, "unit": "µM"}, {"measurement": "GI50", "setting": "OVCAR-3", "result": 21.8, "unit": "µM"}, {"measurement": "GI50", "setting": "[10]", "result": 29.6, "unit": "µM"}, {"measurement": "TGI", "setting": "[10]", "result": 42.5, "unit": "µM"}, {"measurement": "GI50", "setting": "M14", "result": 25, "unit": "µM"}, {"measurement": "GI50", "setting": "U-251", "result": 22.9, "unit": "µM"}, {"measurement": "GI50", "setting": "MDA-MB-231", "result": 15.3, "unit": "µM"}, {"measurement": "GI50", "setting": "Hs-578T", "result": 16.8, "unit": "µM"}, {"measurement": "GI50", "setting": "HCC 2998", "result": 15.3, "unit": "µM"}, {"measurement": "GI50", "setting": "SK-MEL-2", "result": 70.1, "unit": "µM"}, {"measurement": "GI50", "setting": "[11]", "result": 16.1, "unit": "µM"}, {"measurement": "GI50", "setting": "HOP-62", "result": 18.1, "unit": "µM"}, {"measurement": "GI50", "setting": "HT-29", "result": 26.7, "unit": "µM"}, {"measurement": "GI50", "setting": "[12]", "result": 18.2, "unit": "µM"}, {"measurement": "TGI", "setting": "[12]", "result": 74.4, "unit": "µM"}, {"measurement": "GI50", "setting": "SF-295", "result": 21.9, "unit": "µM"}, {"measurement": "GI50", "setting": "UACC-62", "result": 15.8, "unit": "µM"}, {"measurement": "GI50", "setting": "SN12C", "result": 19.9, "unit": "µM"}, {"measurement": "GI50", "setting": "EKVX", "result": 26.1, "unit": "µM"}, {"measurement": "GI50", "setting": "SNB-75", "result": 70.4, "unit": "µM"}, {"measurement": "GI50", "setting": "[13]", "result": 19.5, "unit": "µM"}, {"measurement": "TGI", "setting": "[13]", "result": 98.1, "unit": "µM"}]}]}
